Source: patent US20210274789A1, “Antimicrobial Surface Treatment” (Kode Biotech Limited, priority 2018, published 2021)

Columns and labels:
Assay type in all cases: cell-based
Staphylococcus epidermis [1] = assay: Growth on bandage substrate treated with crystal violet alone or with a construct, resazurin colour change; set-up: key: No growth: dark blue (no growth); Reduced growth: purple (reduced growth); Growth: light red (growth); details: 0.25 mM construct in combination with crystal violet
Protocol: (§1) Swatches (1 cm diameter circular disks) were cut from the fabric portion of commercially available adhesive bandages (BAND-AID™ Quilt-Aid Technology, Johnson & Johnson). Volumes of 50 μL were dispended onto the surface of the swatches and the swatches allowed to air dry undisturbed at 80° C. The volumes consisted of dispersions or solutions in deionized water of 0.04% (w/v) crystal violet, 0.25 mM or 0.13 mM of the construct designated FSL-Se or the construct designated FSL-0, or water alone. A further volume of 100 μL of 0.04% (w/v) crystal violet in deionized water was dispensed onto the surface of the dried treated swatches and incubated undisturbed at room temperature for 10 minutes before rinsing as before with sterile deionized water.
(§2) Frozen stock cultures of bacterial isolates (Staphylococcus aureus, Staphylococcus epidermis, Escherichia coli or Pseudomonas aeruginosa) were streaked on Columbia sheep blood agar plates (Fort Richard Laboratories) and the plates incubated at 37° C. for 24 hours when separate colonies had developed. Two to three colonies were then transferred to a volume of 10 mL of 21 g/L Muller-Hinton (MH) broth, vortexed and the turbidity measured at 600 nm. The MH broth was diluted with a further volume so that the turbidity provided an optical density of 0.20 for the suspensions of Staphylococcus aureus and Staphylococcus epidermis and 0.08 for the suspensions of Escherichia coli and Pseudomonas aeruginosa. The diluted suspensions (around 10^8 cfu/mL) were serially diluted.
(§3) Individual treated swatches from each treatment group were placed at the base of separate wells in a 96-well cell culture plate. Volumes of 10 μL of serial dilutions of the suspensions of bacteria were dispensed onto the surface of the swatches (excluding the negative control). The inoculated swatches were then incubated undisturbed at room temperature for 10 minutes before dispensing into each well a volume of 50 μL of sterile deionized water and 150 μL of MH broth containing 0.02% resazurin sodium salt (Sigma-Aldrich).
(§4) The colour change (if any) observed in each well was observed after incubation of the plate for 24 hours at 37° C. Observations are recorded in Tables 1, 2, 3 and 4.

Staphylococcus aureus [2] = assay: as above; set-up: key: No growth: dark blue (no growth); Reduced growth: purple (reduced growth); Growth: light red (growth)
Protocol: as §1, §2, §3, §4

Staphylococcus epidermis [3] = assay: AgNP augmented antibacterial surface treatment of adhesive bandage swatches, resazurin; set-up: key: Growth: growth (growth); Inhibition: inhibition of growth (inhibition); No growth: prevention of growth (no growth); details: 37° C. for 24 hours, duplicate swatches
Protocol: (§5) Preparation of negatively charged silver nanoparticles Negatively charged nanoparticles of silver (AgNPs) were prepared according to the following method. Quantities of 2 g glucose and 1 g polyvinylpyrrolidone (PVP) were dissolved in water and the resultant volume heated to 90° C. A quantity of 0.5 g of silver nitrate (AgNO3) was dissolved in a separate volume of 1 mL water and the two volumes then rapidly mixed. The mixed volume was maintained at a temperature of 90° C. for a period of time of one hour before cooling to room temperature. The AgNPs were collected by repeated (3 times) centrifugation at 14,000 rpm for a period of time of 60 minutes and resuspension in deionised filtered water (Milli-Q) to remove excess oxidation products, PVP and silver ion (Ag^+). The washed suspension of AgNPs was stored in the dark at 4° C. The AgNPs were characterised by […] dispersive spectroscopy (EDS) and UV-Vis absorbance scanning.
(§6) Swatches (5×5 mm squares) were cut from the fabric portion of commercially available adhesive bandages (BAND-AID™, Quilt-Aid Technology, Johnson & Johnson). A volume of 50 μL of a 0.13 mM dispersion of one of the following constructs was pipetted onto the surface of a swatch: FSL-biotin, FSL-0, FSL-HA17 kDa, FSL-Se and FSL-spm.
(§7) The swatches were air-dried at a temperature of 80° C. prior to washing (3 times) with sterile, filtered, deionised water (Milli-Q).
(§8) Controls were prepared without contacting the swatches with constructs or without washing following contacting the swatches with construct. Individual treated squares (including controls) were placed in the bottom of individual wells of a 96-well plate and inoculated with a volume of 10 μL of a serial dilution of a log phase culture in Mueller Hinton (MH) broth of one of the following bacteria: • Staphylococcus aureus • Staphylococcus epidermis • Escherichia coli • Pseudomonas aeruginosa
(§9) The inoculated swatches were then incubated for 10 minutes before dispensing into each well of the plate a volume of 50 μL of sterile, filtered, deionised water (Milli-Q) and 150 μL of MH broth containing 0.00266% (w/v) resazurin and incubating for a period of time of 24 hours at a temperature of 37° C. The observations of resulting growth (as indicated by a colour change from blue to red) from the estimated bacterial load (2.5×10^4 or 2.5×10^6 colony forming units (cfu)) for each treatment and species of bacterium are recorded in Tables 5 to 8.

Pseudomonas aeruginosa [4] = assay: as above; set-up: key: Growth: growth (growth); Inhibition: inhibition of growth (inhibition); No growth: prevention of growth (no growth); details: 37° C. for 24 hours, duplicate swatches
Protocol: as §5, §6, §7, §8, §9

Escherichia coli [5] = assay: as above; set-up: key: Growth: growth (growth); Inhibition: inhibition of growth (inhibition); No growth: prevention of growth (no growth); details: 37° C. for 24 hours, duplicate swatches
Protocol: as §5, §6, §7, §8, §9

Staphylococcus aureus [6] = assay: as above; set-up: key: Growth: growth (growth); Inhibition: inhibition of growth (inhibition); No growth: prevention of growth (no growth); details: 37° C. for 24 hours, duplicate swatches
Protocol: as §5, §6, §7, §8, §9

Pseudomonas aeruginosa [7] = assay: Growth on bandage substrate treated with crystal violet alone or with a construct, resazurin colour change; set-up: key: No growth: dark blue (no growth); Reduced growth: purple (reduced growth); Growth: light red (growth); details: crystal violet alone
Protocol: as §1, §2, §3, §4

Escherichia coli [8] = assay: as above; set-up: key: No growth: dark blue (no growth); Reduced growth: purple (reduced growth); Growth: light red (growth); details: crystal violet alone
Protocol: as §1, §2, §3, §4

[9] = unwashed following application of the FSL construct, load 2.11 × 10^4 cfu
[10] = unwashed following application of the FSL construct, load 2.11 × 10^6 cfu
[11] = washed following application of the FSL construct, load 2.11 × 10^4 cfu
[12] = washed following application of the FSL construct, load 2.11 × 10^6 cfu
[13] = unwashed following application of the FSL construct, load 1.75 x 10^4 cfu
[14] = unwashed following application of the FSL construct, load 1.75 × 10^6 cfu
[15] = washed following application of the FSL construct, load 1.75 x 10^4 cfu
[16] = washed following application of the FSL construct, load 1.75 x 10^6 cfu
[17] = unwashed following application of the FSL construct, load 1.99 × 10^4 cfu
[18] = unwashed following application of the FSL construct, load 1.99 × 10^6 cfu
[19] = washed following application of the FSL construct, load 1.99 × 10^4 cfu
[20] = washed following application of the FSL construct, load 1.99 × 10^6 cfu
[21] = unwashed following application of the FSL construct, load 2.53 × 10^4 cfu
[22] = unwashed following application of the FSL construct, load 2.53 × 10^6 cfu
[23] = washed following application of the FSL construct, load 2.53 × 10^4 cfu
[24] = washed following application of the FSL construct, load 2.53 × 10^6 cfu
[25] = challenge 1.5 × 10^4 to 10^5 cfu

Row | Compound | Observations of growth, inhibition of growth or prevention of growth (Staphylococcus epidermis [3]; [9]) | Observations of growth, inhibition of growth or prevention of growth (Staphylococcus epidermis [3]; [10]) | Observations of growth, inhibition of growth or prevention of growth (Staphylococcus epidermis [3]; [11]) | Observations of growth, inhibition of growth or prevention of growth (Staphylococcus epidermis [3]; [12]) | Observations of growth, inhibition of growth or prevention of growth (Pseudomonas aeruginosa [4]; [13]) | Observations of growth, inhibition of growth or prevention of growth (Pseudomonas aeruginosa [4]; [14]) | Observations of growth, inhibition of growth or prevention of growth (Pseudomonas aeruginosa [4]; [15]) | Observations of growth, inhibition of growth or prevention of growth (Pseudomonas aeruginosa [4]; [16]) | Observations of growth, inhibition of growth or prevention of growth (Escherichia coli [5]; [17]) | Observations of growth, inhibition of growth or prevention of growth (Escherichia coli [5]; [18]) | Observations of growth, inhibition of growth or prevention of growth (Escherichia coli [5]; [19]) | Observations of growth, inhibition of growth or prevention of growth (Escherichia coli [5]; [20]) | Observations of growth, inhibition of growth or prevention of growth (Staphylococcus aureus [6]; [21]) | Observations of growth, inhibition of growth or prevention of growth (Staphylococcus aureus [6]; [22]) | Observations of growth, inhibition of growth or prevention of growth (Staphylococcus aureus [6]; [23]) | Observations of growth, inhibition of growth or prevention of growth (Staphylococcus aureus [6]; [24]) | other results
1 | NCSeCH2CO-CMG(2)-Ad-DOPE [FSL-Se] | Growth | Growth | Growth | Growth | Growth | Growth | Growth | Growth | Growth | Growth | Growth | Growth | Growth | Growth | Growth | Growth | Growth monitored by colour change of resazurin containing MH broth (Staphylococcus epidermis [1]; challenge 10^3 to 5 × 10^3 cfu): No growth; Growth monitored by colour change of resazurin containing MH broth (Staphylococcus epidermis [1]; challenge 10^4 to 1.5 × 10^4 cfu): No growth; Growth monitored by colour change of resazurin containing MH broth (Staphylococcus epidermis [1]; challenge >10^5 cfu): No growth; Growth monitored by colour change of resazurin containing MH broth (Staphylococcus aureus [2]; 0.25 mM construct in combination with crystal violet, challenge 1.5 × 10^4 to 10^5 cfu): No growth; Growth monitored by colour change of resazurin containing MH broth (Staphylococcus aureus [2]; 0.25 mM construct in combination with crystal violet, challenge 10^3 to 5 × 10^3 cfu): No growth; Growth monitored by colour change of resazurin containing MH broth (Staphylococcus aureus [2]; 0.25 mM construct in combination with crystal violet, challenge >10^5 cfu): No growth
2 | CN(C)c1ccc(C(=C2C=CC(=[N+](C)C)C=C2)c2ccc(N(C)C)cc2)cc1.[Cl-] [Crystal violet, N-[4-[bis[4-(dimethylamino)phenyl]methylene]-2,5-cyclohexadien-1-ylidene]-N-methyl-methanaminium chloride] | Inhibition | Growth | Inhibition | Growth | Growth | Growth | Growth | Growth | Growth | Growth | Growth | Growth | Growth | Growth | Growth | Growth | Growth monitored by colour change of resazurin containing MH broth (Pseudomonas aeruginosa [7]; [25]): Growth; Growth monitored by colour change of resazurin containing MH broth (Pseudomonas aeruginosa [7]; challenge 5 × 10^3 to 10^4 cfu): Growth; Growth monitored by colour change of resazurin containing MH broth (Pseudomonas aeruginosa [7]; challenge 10^3 to 5 × 10^3 cfu): Growth; Growth monitored by colour change of resazurin containing MH broth (Pseudomonas aeruginosa [7]; challenge <500 cfu): Growth; Growth monitored by colour change of resazurin containing MH broth (Pseudomonas aeruginosa [7]; challenge >10^5 cfu): Growth; Growth monitored by colour change of resazurin containing MH broth (Escherichia coli [8]; [25]): Growth; Growth monitored by colour change of resazurin containing MH broth (Escherichia coli [8]; challenge 5 × 10^3 to 10^4 cfu): Growth; Growth monitored by colour change of resazurin containing MH broth (Escherichia coli [8]; challenge 500 to 1,000 cfu): Growth; Growth monitored by colour change of resazurin containing MH broth (Escherichia coli [8]; challenge >10^5 cfu): Growth; Growth monitored by colour change of resazurin containing MH broth (Staphylococcus aureus [2]; crystal violet alone, challenge 500 to 1,000 cfu): No growth
